IC50 data for 65 compounds are collected here from patent publication US11014941B2, “Pyrrolopyrimidine derivatives useful as inhibitors of influenza virus replication” (priority 2017, dated 2021).

In this experiment the target is Influenza PB2 (Influenza A virus, UniProt P03428). The experiment is described as follows: biochemical. The format is binding. The settings on record: read-out: Influenza PB2 affinity, IC50.

Molecules are shown by their SMILES. Bounds are passed on as bounds.

Influenza PB2, sequence (P03428 whole entry, looked up): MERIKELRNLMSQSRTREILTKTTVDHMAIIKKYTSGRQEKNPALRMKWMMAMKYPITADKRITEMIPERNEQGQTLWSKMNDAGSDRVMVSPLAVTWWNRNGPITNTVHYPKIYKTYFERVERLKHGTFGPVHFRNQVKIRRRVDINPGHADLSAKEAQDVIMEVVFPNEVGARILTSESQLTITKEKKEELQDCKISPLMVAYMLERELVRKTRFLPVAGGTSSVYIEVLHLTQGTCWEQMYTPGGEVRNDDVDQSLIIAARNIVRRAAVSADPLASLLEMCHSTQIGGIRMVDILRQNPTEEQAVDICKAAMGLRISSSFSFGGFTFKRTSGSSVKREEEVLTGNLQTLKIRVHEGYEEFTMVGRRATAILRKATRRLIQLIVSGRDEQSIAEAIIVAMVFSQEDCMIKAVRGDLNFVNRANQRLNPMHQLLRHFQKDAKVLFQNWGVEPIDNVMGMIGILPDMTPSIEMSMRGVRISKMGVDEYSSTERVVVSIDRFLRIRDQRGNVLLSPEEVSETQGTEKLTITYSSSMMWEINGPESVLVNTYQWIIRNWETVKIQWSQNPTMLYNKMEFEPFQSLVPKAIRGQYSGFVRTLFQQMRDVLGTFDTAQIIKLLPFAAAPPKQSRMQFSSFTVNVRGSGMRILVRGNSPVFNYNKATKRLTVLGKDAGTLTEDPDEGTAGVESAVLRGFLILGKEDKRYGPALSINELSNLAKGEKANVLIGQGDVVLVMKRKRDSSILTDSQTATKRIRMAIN

In the case of `COC(=O)[C@@]1(C)CCCC[C@@H]1n1ccc2cnc(-c3c[nH]c4ncc(F)cc34)nc21` [Compound B67], the IC50 – broadly, the concentration that inhibits the measured activity by half – fell in the range of 10 to 100 µM.

Take `O=C(O)[C@@H]1C2CCC(CC2)[C@H]1n1cc(C#CC2CC2)c2cnc(-c3c[nH]c4ncc(F)cc34)nc21` [Compound B153]: the IC50 was less than 1 µM.

`COC(=O)[C@]1(C)CCCC[C@H]1n1cc(C(F)(F)F)c2cnc(-c3c[nH]c4ncc(F)cc34)nc21` [Compound B73]: the IC50 was in the range of 10 to 100 µM.

On to `N#CCCCCc1cn([C@@H]2C3CCC(CC3)[C@H]2C(=O)O)c2nc(-c3c[nH]c4ncc(F)cc34)ncc12` [Compound B193], for which the IC50 was less than 1 µM.

`O=C(O)[C@@H]1C2CCC(CC2)C1n1cc(F)c2cnc(-c3c[nH]c4ncc(F)cc34)nc21` (some centres unmarked) [Compound B139]: the IC50 lay within 1 to 10 µM.

On to `O=C(O)[C@@H]1C2CCC(CC2)C1n1cc(-c2ccncc2)c2cnc(-c3c[nH]c4ncc(Cl)cc34)nc21` (some centres unmarked) [Compound B187], for which the IC50 lay in the range of 1 to 10 µM.

As for `CN(C)C(=O)N1CCCC(Cn2cc(F)c3cnc(-c4c[nH]c5ncc(F)cc45)nc32)C1` (centres unmarked) [Compound B75], the IC50 is 10 to 100 µM.

Regarding `CCCCCOCCCCCNC(=O)N1CCC[C@H](n2ccc3cnc(-c4c[nH]c5ncc(F)cc45)nc32)C1` [Compound B34], the IC50 is more than 100 µM.

On to `CCOCCCCCOCCN(C)C(=O)N[C@@H]1CCC[C@H](n2ccc3cnc(-c4c[nH]c5ncc(F)cc45)nc32)C1` [Compound B41], for which the IC50 is 10 to 100 µM.

As to `COC(=O)[C@@H](Cc1ccccc1)NC(=O)CCn1ccc2c(-c3c[nH]c4ncc(F)cc34)ncnc21` [Compound A18], the concentration for half-maximal inhibition (IC50) is more than 100 µM.

On to `O=C(O)[C@@H]1CCCC[C@H]1n1ccc2cnc(-c3c[nH]c4ncc(F)cc34)nc21` (single isomer, unassigned) [Compound B24], for which the IC50 is less than 1 µM.

On to `CNC(=O)N[C@H]1CC[C@H](n2ccc3cnc(-c4c[nH]c5ncc(F)cc45)nc32)CC1` [Compound B79], for which the half-maximal inhibitory concentration (IC50) was more than 100 µM.

As to `O=C(O)C1=CCCCC1n1cc(F)c2cnc(-c3c[nH]c4ncc(Cl)cc34)nc21` (centres unmarked) [Compound B99], the IC50 was less than 1 µM.

Take `Fc1cnc2[nH]cc(-c3ncc4c(F)cn(CC5CCCNC5)c4n3)c2c1` (centres unmarked) [Compound B60]: the 50% inhibitory concentration (IC50) lay within 10 to 100 µM.

As to `N#Cc1cn([C@@H]2C3CCC(CC3)[C@H]2C(=O)O)c2nc(-c3c[nH]c4ncc(Cl)cc34)ncc12` [Compound B191], the IC50 was less than 1 µM.

Regarding `O=C(O)[C@@H]1C2CCC(CC2)C1n1cc(Cl)c2cnc(-c3c[nH]c4ncc(Cl)cc34)nc21` (single isomer, unassigned) [Compound B137], the half-maximal inhibitory concentration (IC50) is less than 1 µM.

As to `CN(C)C(=O)CCn1ccc2c(-c3c[nH]c4ncc(F)cc34)ncnc21` [Compound A4], the IC50 was 10 to 100 µM.

Turning to `CCCCCOCCOCCN(C)C(=O)N[C@@H]1CCC[C@H](n2ccc3cnc(-c4c[nH]c5ncc(F)cc45)nc32)C1` [Compound B42], the IC50 is more than 100 µM.

For the compound `CCCCCOCCCCCNC(=O)N[C@H]1CCC[C@@H](n2ccc3cnc(-c4c[nH]c5ncc(F)cc45)nc32)C1` [Compound B49], the IC50 is more than 100 µM.

With `CN(C)C(=O)N[C@H]1C2CCC(CC2)[C@@H]1n1cc(Cl)c2cnc(-c3c[nH]c4ncc(F)cc34)nc21` [Compound B171], the IC50 is 1 to 10 µM.

Regarding `CNC(=O)[C@@H]1C2CCC(CC2)[C@H]1n1cc(F)c2cnc(-c3c[nH]c4ncc(Cl)cc34)nc21` [Compound B188], the IC50 was in the range of 1 to 10 µM.

`O=C(Cn1ccc2c(-c3c[nH]c4ncc(F)cc34)ncnc21)N[C@@H](CO)C(=O)O` [Compound A20]: the IC50 fell in the range of 1 to 10 µM.

With `O=C(O)CCn1ccc2c(-c3c[nH]c4ncc(F)cc34)ncnc21` [Compound A5], the IC50 was 10 to 100 µM.

With `CNC(=O)[C@]1(C)CCCC[C@H]1n1cc(Cl)c2cnc(-c3c[nH]c4ncc(F)cc34)nc21` [Compound B82], the IC50 lay in the range of 10 to 100 µM.

Take `CN(C)C(=O)N[C@H]1CC[C@H](n2ccc3cnc(-c4c[nH]c5ncc(F)cc45)nc32)CC1` [Compound B80]: the IC50 was more than 100 µM.

On to `CN(C)C(=O)N[C@@H]1CCC[C@H](n2ccc3cnc(-c4c[nH]c5ncc(F)cc45)nc32)C1` [Compound B56], for which the IC50 fell in the range of 10 to 100 µM.

In the case of `NC(=O)C[C@H](NC(=O)Cn1ccc2c(-c3c[nH]c4ncc(F)cc34)ncnc21)C(=O)O` [Compound A17], the IC50 lay within 1 to 10 µM.

Regarding `CCOCCOCCCCCN(C)C(=O)N[C@@H]1CCC[C@H](n2ccc3cnc(-c4c[nH]c5ncc(F)cc45)nc32)C1` [Compound B45], the IC50 was 10 to 100 µM.

For `CNC(=O)Cn1cc(-c2c[nH]c3ncc(F)cc23)c2cncnc21` [Compound C9], the IC50 was in the range of 10 to 100 µM.

For the compound `O=CC1=C(n2cc(F)c3cnc(-c4c[nH]c5ncc(Cl)cc45)nc32)C2CCC1CC2` [Compound B209], the IC50 lay within 1 to 10 µM.

On to `COC(=O)[C@@H]1C2CCC(CC2)[C@H]1n1ccc2ccc(-c3c[nH]c4ncc(Cl)cc34)cc21` [Compound B200], for which the IC50 lay within 10 to 100 µM.

On to `N#Cc1cnc2[nH]cc(-c3ncc4c(Cl)cn([C@@H]5C6CCC(CC6)[C@H]5C(=O)O)c4n3)c2c1` [Compound B218], for which the IC50 was more than 100 µM.

For `CN(C)C(=O)CN1CCc2cnc(-c3c[nH]c4ncc(F)cc34)nc21` [Compound B6], the IC50 lay in the range of 10 to 100 µM.

Regarding `COC(=O)[C@H](C)NC(=O)Cn1ccc2c(-c3c[nH]c4ncc(F)cc34)ncnc21` [Compound A10], the IC50 is 10 to 100 µM.

`CCCCCOCCOCCNC(=O)N[C@H]1CCC[C@@H](n2ccc3cnc(-c4c[nH]c5ncc(F)cc45)nc32)C1` [Compound B36]: the IC50 is more than 100 µM.

Consider `CCOCCOCCOCCN(C)C(=O)[C@@H]1CCCC[C@H]1n1ccc2cnc(-c3c[nH]c4ncc(F)cc34)nc21` [Compound B26], for which the IC50 is 10 to 100 µM.

Regarding `CCOCCOCCCCCNC(=O)N[C@@H]1CCC[C@H](n2ccc3cnc(-c4c[nH]c5ncc(F)cc45)nc32)C1` [Compound B40], the IC50 is more than 100 µM.

Take `CCOCCOCCOCCNC(=O)[C@H]1CCC[C@H](n2ccc3cnc(-c4c[nH]c5ncc(F)cc45)nc32)C1` [Compound B47]: the IC50 was more than 100 µM.

With `CC(C)(C)OC(=O)NCCn1cc(-c2c[nH]c3ncc(F)cc23)c2cncnc21` [Compound C13], the IC50 was more than 100 µM.

In the case of `COC(=O)[C@H]1CCCN1C(=O)Cn1ccc2c(-c3c[nH]c4ncc(F)cc34)ncnc21` [Compound A15], the IC50 is more than 100 µM.

As to `O=C(O)c1cn([C@H]2C3CCC(CC3)[C@@H]2C(=O)O)c2nc(-c3c[nH]c4ncc(Cl)cc34)ncc12` [Compound B196], the IC50 fell in the range of 1 to 10 µM.

Take `CNC(=O)[C@@H]1CCCC[C@H]1n1cc(F)c2cnc(-c3c[nH]c4ncc(Cl)cc34)nc21` (single isomer, unassigned) [Compound B93]: the IC50 lay within 1 to 10 µM.

On to `CN(C)C(=O)CCn1cc(-c2c[nH]c3ncc(F)cc23)c2cncnc21` [Compound C2], for which the IC50 is more than 100 µM.

For `O=C(O)[C@H]1C2CCC(CC2)[C@@H]1n1cc(F)c2cnc(-c3c[nH]c4ncc(F)cc34)nc21` [Compound B131], the IC50 is less than 1 µM.

For `O=C(O)[C@@H]1C2CCC(CC2)C1n1cc(Cl)c2cnc(-c3c[nH]c4ncc(F)cc34)nc21` (some centres unmarked) [Compound B138], the IC50 is less than 1 µM.

For `O=C(O)[C@H]1C2CCC(CC2)C1n1ccc2cnc(-c3c[nH]c4ncc(F)cc34)nc21` (some centres unmarked) [Compound B122], the IC50 lay in the range of 1 to 10 µM.

In the case of `CNC(=O)c1cn([C@H]2C3CCC(CC3)[C@@H]2C(=O)O)c2nc(-c3c[nH]c4ncc(Cl)cc34)ncc12` [Compound B197], the IC50 is less than 1 µM.

Turning to `COC(=O)NCCn1cc(-c2c[nH]c3ncc(F)cc23)c2cncnc21` [Compound C15], the half-inhibitory concentration (IC50) is more than 100 µM.

As to `COC(=O)CCn1ccc2cnc(-c3c[nH]c4ncc(F)cc34)nc21` [Compound B3], the IC50 is more than 100 µM.

As for `COC(=O)[C@H](CO)NC(=O)Cn1ccc2c(-c3c[nH]c4ncc(F)cc34)ncnc21` [Compound A13], the IC50 is more than 100 µM.

For `CNC(=O)[C@H]1C2CCC(CC2)[C@@H]1n1cc(Cl)c2cnc(-c3c[nH]c4ncc(F)cc34)nc21` [Compound B141], the IC50 is 1 to 10 µM.

Regarding `CNC(=O)N1CCCC(Cn2cc(F)c3cnc(-c4c[nH]c5ncc(F)cc45)nc32)C1` (centres unmarked) [Compound B61], the IC50 was in the range of 1 to 10 µM.

Turning to `O=C(O)Cn1ccc2cnc(-c3c[nH]c4ncc(F)cc34)nc21` [Compound B4], the IC50 was in the range of 10 to 100 µM.

On to `C[C@@]1(C(=O)O)CCCC[C@@H]1n1cc(Cl)c2cnc(-c3c[nH]c4ncc(F)cc34)nc21` [Compound B83], for which the IC50 fell in the range of 1 to 10 µM.

Turning to `O=C(N[C@H]1CCC[C@@H](n2cc(F)c3cnc(-c4c[nH]c5ncc(Cl)cc45)nc32)C1)c1ccccn1` [Compound B96], the IC50 is more than 100 µM.

Take `C[C@]1(C(=O)O)CCCC[C@@H]1n1ccc2cnc(-c3c[nH]c4ncc(F)cc34)nc21` [Compound B71]: the IC50 was less than 1 µM.

Regarding `COC(=O)CNC(=O)Cn1ccc2cnc(-c3c[nH]c4ncc(F)cc34)nc21` [Compound B10], the IC50 is more than 100 µM.

Consider `CNC(=O)NCCn1cc(-c2c[nH]c3ncc(F)cc23)c2cncnc21` [Compound C14], for which the IC50 is more than 100 µM.

Consider `O=C(O)[C@@H]1C2CCC(CC2)[C@H]1n1cc(F)c2cnc(-c3c[nH]c4ncc(C(F)(F)F)cc34)nc21` [Compound B216], for which the IC50 lay within 1 to 10 µM.

Take `O=C(O)[C@@H]1C2CCC(CC2)C1n1cc(-c2ccncc2)c2cnc(-c3c[nH]c4ncc(Cl)cc34)nc21` (single isomer, unassigned) [Compound B189]: the 50% inhibitory concentration (IC50) lay in the range of 1 to 10 µM.

With `CCOCCOCCCCC(=O)N[C@H]1CCC[C@@H](n2ccc3cnc(-c4c[nH]c5ncc(F)cc45)nc32)C1` [Compound B52], the IC50 is more than 100 µM.

On to `O=C(O)[C@H]1C2CCC(CC2)[C@@H]1n1cc(F)c2cnc(-c3c[nH]c4ncc(Cl)cc34)nc21` [Compound B135], for which the IC50 was less than 1 µM.

As to `COC(=O)[C@H](Cc1ccccc1)NC(=O)Cn1ccc2c(-c3c[nH]c4ncc(F)cc34)ncnc21` [Compound A8], the IC50 was more than 100 µM.

Consider `CCOC(=O)[C@@H]1C2CCC(CC2)[C@H]1n1cc(-c2ccc(O)cc2)c2cnc(-c3c[nH]c4ncc(F)cc34)nc21` [Compound B178], for which the IC50 lay within 10 to 100 µM.

For `CN(C)C(=O)c1cn([C@@H]2C3CCC(CC3)[C@H]2C(=O)O)c2nc(-c3c[nH]c4ncc(Cl)cc34)ncc12` [Compound B204], the IC50 was less than 1 µM.
